Reference: the supplement of paper PMC4862054
One block for each molecule: values may come before it.

Tests used:
Hs578T [1] = details: 72 h
Method: (§1)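 Drug sensitivity and resistance testing (DSRT) of breast cancer cell lines in 384-well plates, 5 concentrations in 10-fold dilutions over a compound-specific 10,000-fold range. After 72 h, cytotoxicity was read by CellTox Green fluorescence and viability by CellTiter-Glo luminescence (multiplexed), normalised to DMSO and benzethonium chloride controls. EC50 is the inflection point of the fitted dose-response curve (bottom asymptote free, so it can be relative for partial curves) and is censored at the highest tested concentration. Rows with DSS 0 (no meaningful response) were excluded.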

HDQ-P1 [2] = details: 72 h
Summary of the method: (§2)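 Plates of 384 wells holding compound in 5 µl medium received breast cancer cell lines in 20 µl suspension and were incubated 72 h. CellTiter-Blue (2.5 µl, 2 h, 37 °C) was used for viability, read at 560/590 nm, and every plate was normalised to vehicle and a positive kill control and assessed by Z'-factor. The EC50 derives from a percent-inhibition dose-response curve fit censored at the highest concentration, leaving out rows whose drug sensitivity score was zero.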

CAL-85-1 [3] = details: 72 h
Summary of the method: as §2

CAL-148 [4] = details: 72 h
Summary of the method: as §2

CAL-51 [5] = details: 72 h
Summary of the method: as §2

DU-4475 [6] = details: 72 h
Summary of the method: as §2

CAL-85-1 [7] = details: 72 h; remark: listed apart in the source
Method: as §1

HCC1143 [8] = details: 72 h
Method: as §1

BT-474 [9] = details: 72 h
Method: as §1

MDA-MB-468 [10] = details: 72 h
Method: as §1

CAL-148 [11] = details: 72 h; remark: listed apart in the source
Method: as §1

CAL-51 [12] = details: 72 h; remark: listed apart in the source
Method: as §1

HDQ-P1 [13] = details: 72 h; remark: listed apart in the source
Summary of the method: (§3)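 Two sequential readouts followed a 72 h incubation of breast cancer cell lines with compound at 5 concentrations in 10-fold steps over a compound-specific 10,000-fold range: CellTox Green fluorescence (485/520 nm) for cell death, then CellTiter-Glo luminescence, after 10 min at room temperature, for viability. Each plate was normalised to 0.1 % DMSO and a positive kill control. Dose-response curves were fitted for EC50, censored at the top concentration.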

HCC1143 [14] = details: 72 h; remark: listed apart in the source
Summary of the method: as §3

MFM-223 [15] = details: 72 h
Summary of the method: as §3

HCC1599 [16] = details: 72 h
Summary of the method: as §3

CAL-148 [17] = details: 72 h; remark: listed apart in the source
Summary of the method: as §3

DU-4475 [18] = details: 72 h; remark: listed apart in the source
Summary of the method: as §3

SK-BR-3 = details: 72 h
Summary of the method: as §2

CAL-120 [19] = details: 72 h
Summary of the method: as §2

HCC1143 [20] = details: 72 h; remark: listed apart in the source
Summary of the method: as §2

MDA-MB-436 [21] = details: 72 h
Summary of the method: as §2

BT-474 [22] = details: 72 h; remark: listed apart in the source
Summary of the method: as §2

Hs578T [23] = details: 72 h; remark: listed apart in the source
Summary of the method: as §2

MFM-223 [24] = details: 72 h; remark: listed apart in the source
Summary of the method: as §2

MDA-MB-468 [25] = details: 72 h; remark: listed apart in the source
Summary of the method: as §2

HCC1599 [26] = details: 72 h; remark: listed apart in the source
Summary of the method: as §2

HCC1937 [27] = details: 72 h
Summary of the method: as §2

MDA-MB-231 [28] = details: 72 h
Summary of the method: as §2

BT-549 = details: 72 h
Summary of the method: as §2

BT-474 [29] = experiment: normalised viability (% of control), CellTiter-Blue; higher = more viable cells (about 100 = DMSO control); details: incubation time: 72 h
Summary of the method: (§4)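 Breast cancer cell lines in 20 µl suspension were seeded onto 384-well plates pre-loaded with compound dissolved in 5 µl medium, then incubated 72 h. CellTiter-Blue reagent (2.5 µl) was added for 2 h at 37 °C and fluorescence read at 560/590 nm. Each plate was normalised to vehicle (100) and a positive kill control (0), with Z'-factor quality control. The value is normalised viability at one listed concentration of the series.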

DU-4475 [30] = experiment: as above; details: incubation time: 72 h
Summary of the method: as §4

MDA-MB-436 [31] = details: 72 h; remark: listed apart in the source
Method: as §1

MDA-MB-453 = details: 72 h
Method: as §1

CAL-120 [32] = details: 72 h; remark: listed apart in the source
Method: as §1

MCF-10A = details: 72 h
Method: as §1

MDA-MB-231 [33] = details: 72 h; remark: listed apart in the source
Method: as §1

MFM-223 [34] = details: 72 h; remark: listed apart in the source
Method: as §1

HCC1937 [35] = details: 72 h; remark: listed apart in the source
Method: as §1

SMILES: Nc1ncnc2c1c(COc1cccc(Cl)c1)nn2C1CCOCC1
EC50, CellTox Green (Hs578T [1]): > 10 µM

SMILES: COc1ccc(-c2ccc3c(N4CCOC[C@@H]4C)nc(N4CCOC[C@@H]4C)nc3n2)cc1CO [AZD8055]
EC50, CellTiter-Blue viability (HDQ-P1 [2]): 0.0238 µM | EC50, CellTiter-Blue viability (CAL-85-1 [3]): 0.0347 µM | EC50, CellTiter-Blue viability (CAL-148 [4]): 0.0345 µM | EC50, CellTiter-Blue viability (CAL-51 [5]): 0.0219 µM | EC50, CellTiter-Blue viability (DU-4475 [6]): 0.104 µM | EC50, CellTox Green (CAL-85-1 [7]): > 10 µM | EC50, CellTox Green (HCC1143 [8]): 1.47 µM | EC50, CellTox Green (BT-474 [9]): 9.15 µM | EC50, CellTox Green (MDA-MB-468 [10]): 6.94 µM | EC50, CellTox Green (CAL-148 [11]): 0.0307 µM | EC50, CellTox Green (CAL-51 [12]): 0.0052 µM | EC50, CellTiter-Glo (HDQ-P1 [13]): 0.0305 µM | EC50, CellTiter-Glo (HCC1143 [14]): 0.0404 µM | EC50, CellTiter-Glo (MFM-223 [15]): 0.0203 µM | EC50, CellTiter-Glo (HCC1599 [16]): 0.152 µM | EC50, CellTiter-Glo (CAL-148 [17]): 0.0641 µM | EC50, CellTiter-Glo (DU-4475 [18]): 0.229 µM | EC50, CellTiter-Blue viability (SK-BR-3): 0.0201 µM | EC50, CellTiter-Blue viability (CAL-120 [19]): 0.0454 µM | EC50, CellTiter-Blue viability (HCC1143 [20]): 0.0792 µM | EC50, CellTiter-Blue viability (MDA-MB-436 [21]): 0.106 µM | EC50, CellTiter-Blue viability (BT-474 [22]): 0.0838 µM | EC50, CellTiter-Blue viability (Hs578T [23]): 0.0369 µM | EC50, CellTiter-Blue viability (MFM-223 [24]): 0.0187 µM | EC50, CellTiter-Blue viability (MDA-MB-468 [25]): 0.149 µM | EC50, CellTiter-Blue viability (HCC1599 [26]): 0.0628 µM | EC50, CellTiter-Blue viability (HCC1937 [27]): 0.0154 µM | EC50, CellTiter-Blue viability (MDA-MB-231 [28]): 0.0474 µM | EC50, CellTiter-Blue viability (BT-549): 0.061 µM | normalised viability (BT-474 [29]; 1000 nM): 26.9% | normalised viability (DU-4475 [30]; 30 nM): 75.8%

SMILES: C[C@]12CC[C@H](O)CC1=CC[C@@H]1[C@@H]2CC[C@]2(C)C(c3cccnc3)=CC[C@@H]12 [Abiraterone]
normalised viability (BT-474 [29]; 500 nM): 116% | normalised viability (DU-4475 [30]; 15 nM): 80.8%

SMILES: CC(C)(C#N)c1cc(Cn2cncn2)cc(C(C)(C)C#N)c1 [Anastrozole]
EC50, CellTox Green (MDA-MB-453): > 10 µM | normalised viability (BT-474 [29]; 1000 nM): 101% | normalised viability (DU-4475 [30]; 30 nM): 94.2%

SMILES: O=C(O)CCCc1ccc(N(CCCl)CCCl)cc1 [Chlorambucil]
EC50, CellTox Green (MDA-MB-436 [31]): > 10 µM | EC50, CellTiter-Blue viability (MDA-MB-468 [25]): 5.34 µM | EC50, CellTiter-Blue viability (HCC1937 [27]): 0.731 µM | normalised viability (BT-474 [29]; 1000 nM): 112% | normalised viability (DU-4475 [30]; 30 nM): 92%

The next lines start with results.

EC50, CellTiter-Glo (HCC1143 [14]): 3.33 µM | EC50, CellTiter-Glo (HCC1599 [16]): > 10 µM | EC50, CellTiter-Blue viability (SK-BR-3): 5.74 µM | EC50, CellTiter-Blue viability (HCC1143 [20]): 3.71 µM | EC50, CellTiter-Blue viability (MDA-MB-436 [21]): 2.76 µM | EC50, CellTiter-Blue viability (BT-474 [22]): > 10 µM | EC50, CellTiter-Blue viability (MDA-MB-468 [25]): 6.67 µM | EC50, CellTiter-Blue viability (HCC1599 [26]): 9.62 µM | EC50, CellTiter-Blue viability (HCC1937 [27]): 1.11 µM | EC50, CellTiter-Blue viability (MDA-MB-231 [28]): 2.24 µM | EC50, CellTiter-Blue viability (BT-549): 9.68 µM
SMILES: CN(C)CCN1C(=O)c2cccc3cc(N)cc(c23)C1=O [Amonafide]
EC50, CellTiter-Blue viability (HDQ-P1 [2]): 9.74 µM | EC50, CellTiter-Blue viability (CAL-85-1 [3]): 4.45 µM | EC50, CellTiter-Blue viability (CAL-148 [4]): 1.83 µM | EC50, CellTiter-Blue viability (CAL-51 [5]): 3.32 µM | EC50, CellTiter-Blue viability (DU-4475 [6]): 3.24 µM | EC50, CellTox Green (MDA-MB-436 [31]): 0.0444 µM | EC50, CellTox Green (CAL-148 [11]): 6.19 µM | EC50, CellTox Green (CAL-51 [12]): 6.26 µM | EC50, CellTiter-Glo (MFM-223 [15]): 7.4 µM | EC50, CellTiter-Glo (CAL-148 [17]): 4.3 µM | EC50, CellTiter-Glo (DU-4475 [18]): 3.3 µM | EC50, CellTiter-Blue viability (CAL-120 [19]): 3.37 µM | EC50, CellTiter-Blue viability (Hs578T [23]): 9.38 µM | EC50, CellTiter-Blue viability (MFM-223 [24]): 7.28 µM | normalised viability (BT-474 [29]; 1000 nM): 108% | normalised viability (DU-4475 [30]; 30 nM): 83.2%

EC50, CellTiter-Glo (HCC1143 [14]): 2.03 µM
SMILES: CC(C)c1c(C(=O)Nc2ccccc2)c(-c2ccccc2)c(-c2ccc(F)cc2)n1CC[C@@H](O)C[C@@H](O)CC(=O)O [Atorvastatin]
EC50, CellTox Green (MDA-MB-453): > 10 µM | EC50, CellTox Green (CAL-120 [32]): 9.01 µM | EC50, CellTox Green (Hs578T [1]): 3.78 µM | EC50, CellTox Green (MCF-10A): 1.94 µM | EC50, CellTox Green (CAL-51 [12]): 0.668 µM | EC50, CellTox Green (MDA-MB-231 [33]): 0.796 µM | EC50, CellTiter-Glo (HDQ-P1 [13]): 1.25 µM

EC50, CellTiter-Glo (HCC1143 [14]): 0.0179 µM
SMILES: Cn1c(=O)n(-c2ccc(C(C)(C)C#N)cc2)c2c3cc(-c4cnc5ccccc5c4)ccc3ncc21 [Dactolisib]
EC50, CellTox Green (CAL-85-1 [7]): 0.197 µM | EC50, CellTox Green (MFM-223 [34]): 0.579 µM | EC50, CellTox Green (CAL-148 [11]): 0.1 µM | EC50, CellTox Green (HCC1937 [35]): 0.0807 µM | EC50, CellTiter-Glo (HDQ-P1 [13]): 0.0128 µM | EC50, CellTiter-Glo (MFM-223 [15]): 0.0148 µM | EC50, CellTiter-Glo (CAL-148 [17]): 0.0187 µM | EC50, CellTiter-Glo (DU-4475 [18]): 0.0428 µM
